Measured values reported in the supplement of paper PMC10307832.

Key:
Test in all cases: relative viability (nuclei count vs DMSO), 5 days (fraction); higher = more cells survive
UMC-11 = system: UMC-11
Procedure, shortened: (§1)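 Medians of duplicate plates are given as relative viability. That measure is the nuclei count in treated wells divided by the count in vehicle wells. Counts were taken on 4× images of lung cancer cell lines in 1536-well plates, 5 days after pin-tool dosing the day after seeding with one drug alone or a fixed anchor-drug dose plus five library-drug doses (not always all listed) in √10 steps.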

HCC-15 = system: HCC-15
Procedure, shortened: as §1

NCI-H1623 = system: NCI-H1623
Procedure, shortened: as §1

HCC-44 = system: HCC-44
Procedure, shortened: as §1

NCI-H1395 = system: NCI-H1395
Procedure, shortened: as §1

NCI-H1755 = system: NCI-H1755
Procedure, shortened: as §1

NCI-H1648 = system: NCI-H1648
Procedure, shortened: as §1

EKVX = system: EKVX
Procedure, shortened: as §1

LCLC-103H = system: LCLC-103H
Procedure, shortened: as §1

CC(=O)O[C@@]12CO[C@@H]1C[C@H](O)[C@@]1(C)C(=O)[C@H](O)C3=C(C)[C@@H](OC(=O)[C@H](O)[C@@H](NC(=O)OC(C)(C)C)c4ccccc4)C[C@@](O)([C@@H](OC(=O)c4ccccc4)[C@H]21)C3(C)C [Docetaxel] + Cc1cc(Nc2cc(N3CCN(C)CC3)nc(Sc3ccc(NC(=O)C4CC4)cc3)n2)n[nH]1 [Tozasertib] (partner 0.1 µM)
relative viability (UMC-11; first compound 0.0002 µM): 0.193
relative viability (UMC-11; first compound 0.000632 µM): 0.193
relative viability (UMC-11; first compound 0.002 µM): 0.218
relative viability (UMC-11; first compound 0.006325 µM): 0.227
relative viability (UMC-11; first compound 0.02 µM): 0.217
relative viability (HCC-15; first compound 0.0002 µM): 0.391
relative viability (HCC-15; first compound 0.000632 µM): 0.266
relative viability (HCC-15; first compound 0.002 µM): 0.174
relative viability (HCC-15; first compound 0.006325 µM): 0.239
relative viability (HCC-15; first compound 0.02 µM): 0.135
relative viability (NCI-H1623; first compound 0.0002 µM): 0.453
relative viability (NCI-H1623; first compound 0.000632 µM): 0.367
relative viability (NCI-H1623; first compound 0.002 µM): 0.409
relative viability (NCI-H1623; first compound 0.006325 µM): 0.42
relative viability (NCI-H1623; first compound 0.02 µM): 0.377
relative viability (HCC-44; first compound 0.0002 µM): 0.93
relative viability (HCC-44; first compound 0.000632 µM): 0.442
relative viability (HCC-44; first compound 0.002 µM): 0.41
relative viability (HCC-44; first compound 0.006325 µM): 0.295
relative viability (HCC-44; first compound 0.02 µM): 0.158
relative viability (NCI-H1395; first compound 0.0002 µM): 0.698
relative viability (NCI-H1395; first compound 0.000632 µM): 0.753
relative viability (NCI-H1395; first compound 0.002 µM): 0.59
relative viability (NCI-H1395; first compound 0.006325 µM): 0.372
relative viability (NCI-H1395; first compound 0.02 µM): 0.325
relative viability (NCI-H1755; first compound 0.0002 µM): 0.62
relative viability (NCI-H1755; first compound 0.000632 µM): 0.609
relative viability (NCI-H1755; first compound 0.002 µM): 0.46
relative viability (NCI-H1755; first compound 0.006325 µM): 0.335
relative viability (NCI-H1755; first compound 0.02 µM): 0.373
relative viability (NCI-H1648; first compound 0.0002 µM): 0.449
relative viability (NCI-H1648; first compound 0.000632 µM): 0.509
relative viability (NCI-H1648; first compound 0.002 µM): 0.28
relative viability (NCI-H1648; first compound 0.006325 µM): 0.195
relative viability (NCI-H1648; first compound 0.02 µM): 0.155
relative viability (EKVX; first compound 0.0002 µM): 0.519
relative viability (EKVX; first compound 0.000632 µM): 0.409
relative viability (EKVX; first compound 0.002 µM): 0.224
relative viability (EKVX; first compound 0.006325 µM): 0.212
relative viability (EKVX; first compound 0.02 µM): 0.149
relative viability (LCLC-103H; first compound 0.0002 µM): 0.48
relative viability (LCLC-103H; first compound 0.000632 µM): 0.39
relative viability (LCLC-103H; first compound 0.002 µM): 0.358
relative viability (LCLC-103H; first compound 0.006325 µM): 0.377
relative viability (LCLC-103H; first compound 0.02 µM): 0.296
